# Measured values as given in US10913750B2, “Tubulin-binding compounds, compositions and uses related thereto” (The Regents of the University of California, priority 2015, dated 2021).
# What was measured:
# HeLa cells [1] = assay: CellTiter-Glo cell viability, HeLa cells; type: cell-based; settings: Homo sapiens; HeLa cells, 72 hours, CellTiter-Glo
# Protocol: (§1) The cell viability IC50 of each compound was determined using Promega CellTiter-Glo Luminescent Cell Viability Assay kit by measuring the total ATP levels to quantify the number of metabolically active cells upon drug treatment as described in Crouch et al., J Immunol Methods 1993, 160, (1), 81-8. Briefly, the compounds were suspended in DMSO at 10 mM and diluted in 384 plates (20 μl/well in DMSO) in triplicate by a 14-point titration (12 nM to 100 μM). 50 μl of HeLa cells or patient derived glioblastoma cells (HK-309) (2000 cells/well) were then treated with the prepared dilutions of the drugs (0.5 μl) and incubated at 37° C. and 5% CO2. 72 hours later 50 μl of CellTiter-Glo reagent was added to each well followed by a 2 minutes shaking and a 10-minute incubation to lyse the cells. The relative luminescent intensity units (RLU) of each well was measured using a Tecan M1000 microplate reader (Tecan Group Ltd.) with its green filter and 1 second integration time.
# (§2) Cells used in Example 2 and other examples disclosed herein were cultured as follows: Adherent HeLa cells and patient derived glioblastoma cells were grown with 5% CO2 at 37° C. in F12:DMEM 50:50 medium (Invitrogen) containing 10% FBS and 1% penicillin/streptomycin. To obtain HeLa cells synchronized in mitosis, cycling cells were treated with 2 mM thymidine (Sigma-Aldrich) for eighteen hours, washed three times with PBS, and released into fresh media until they entered mitosis eight hours post-release. Patient-derived glioblastoma cells (HK-309) were collected and grown with approval from the UCLA Institutional Review Board. HK-309 was derived from a recurrent glioblastoma taken from a person. The cells were initially propagated as cancer stem cell-containing spheres in serum-free medium containing basic fibroblast growth factor and epidermal growth factor (Preprotech) as described previously by Visnyei et al., Mol Cancer Ther 2011, 10, (10), 1818-28.
# For mitotic arrest IC50s, cells were treated with a twenty-point-2-fold-titration (190 pM to 10 μM) of each compound tested for 20 hours. For cell viability IC50s, cells were treated with a fourteen-point-2-fold-titration (12.2 nM to 100 μM). Mitotic arrest IC50 was determined by measuring the percent G2/M arrest using the Vybrant DyeCycle Green (Invitrogen) assay described above. Cell viability IC50 was determined using the CellTiter-Glo Assay (Promega), which measures total ATP levels. Plates were read with a Tecan M1000 micro-plate reader at 540 nm. The CDD software was used for generating IC50 and IC90 values.
# HeLa cells [2] = assay: Microtubule stability by immunofluorescence microscopy; type: cell-based; settings: increasing concentrations, anti-α-tubulin staining
# Protocol: Next, microtubule stability was analyzed in HeLa cells treated with increasing concentrations of each of these three compounds by fixing the cells with 4% paraformaldehyde, staining them with Hoechst 33342 (DNA dye) to visualize their DNA and anti-α-tubulin antibodies to visualize microtubule structures and then imaging them by immunofluorescence microscopy.
# [3] = system: patient-derived glioblastoma cells (HK-309); assay: CellTiter-Glo cell viability, patient-derived glioblastoma cells; type: cell-based; settings: HK-309, 72 hours
# Protocol: as §1, §2
# tubulin = biological target: T1, tubulin (Sus scrofa, UniProt P02554); assay: In vitro tubulin polymerization assay (HTS-tubulin polymerization kit, Cytoskeleton); type: biochemical; settings: 3 μM compound, fluorescence, 70 minutes at 37° C.
# T1 construct: purchased Cytoskeleton Inc. BK011P
# Protocol: 1.5 ul of 10× strength compound, 20 μl of tubulin solution and Triton X-100 at a final concentration of 0.01% were added to each well in a 384 well plate. The reactions were assembled on ice to prevent tubulin pre-polymerization. For kinetic measurements, microtubule polymerization was monitored by reading the fluorescence at 420 nm (due to the incorporation of a fluorescent reporter into microtubules as polymerization occurs) every ten seconds using a Tecan M1000 microplate reader (FIG. 6B). […] Fluorescence increased as polymerization occurred, due to the incorporation of 4′,6-diamidino-2-phenylindole. Fluorescence was monitored every minute for 70 minutes at 37° C.
# Tubulin polymerization reactions were carried out according to the manufacturer (Cytoskeleton, BK011P) in the presence of 3 μM colchicine, MI-181, taxol or DMSO. Polymerization was monitored with a Tecan M1000 micro-plate reader at 420 nm for 70 minutes at 37° C. The results are depicted in FIG. 11.
# M233 = assay: Melanoma colony formation, M233; type: cell-based; settings: 10 nM, M233 (first value of pair)
# Protocol: (§3) To determine if MI-181 had broad anti-cancer activity, we treated a diverse panel of cancer cell lines including cervical adenocarcinoma (HeLa), breast adenocarcinoma (MCF7), melanoma (M233), osteosarcoma (U205), acute lymphoblastic leukemia (CCRF-CEM), non-small cell lung carcinoma (NCI-H460), and breast adenocarcinoma (MCF7) with MI-181 and determined its cell viability IC50 (FIGS. 13A and 13B). […] Therefore, the efficacy of MI-181 was analyzed in a panel of melanoma cell lines with defined genetic backgrounds including BRAF^V600E and NRAS^Q61L mutations and varied sensitivities to Vemurafenib (BRAF inhibitor) and Trametinib (MEK inhibitor), which are currently used to treat BRAF^V600E melanomas^43,44 (FIG. 10c). […] As a general trend BRAF^V600E cell lines were slightly more sensitive than NRAS^Q61L cell lines and MI-181 was effective in Vemurafenib and Trametinib resistant cell lines (FIG. 10c and Table 3). Finally, we tested the ability of MI-181 to inhibit melanoma colony formation using the M233 and M308 cell lines (both resistant to Vemurafenib). Indeed, MI-181 was a potent inhibitor of colony formation (percentage colony formation for 10 nM MI-181=0.2±0.1 and 0.8±0.7; for 10 nM colchicine=0.1±0.06 and 1.5±0.5; and for 10 nM Vemurafenib=94±7 and 102±5) (FIG. 10d). Thus, MI-181 is a potent inhibitor of melanoma cell lines.
# M308 = assay: Melanoma colony formation, M308; type: cell-based; settings: 10 nM, M308 (second value of pair)
# Protocol: as §3
# T1 sequence (P02554 whole entry): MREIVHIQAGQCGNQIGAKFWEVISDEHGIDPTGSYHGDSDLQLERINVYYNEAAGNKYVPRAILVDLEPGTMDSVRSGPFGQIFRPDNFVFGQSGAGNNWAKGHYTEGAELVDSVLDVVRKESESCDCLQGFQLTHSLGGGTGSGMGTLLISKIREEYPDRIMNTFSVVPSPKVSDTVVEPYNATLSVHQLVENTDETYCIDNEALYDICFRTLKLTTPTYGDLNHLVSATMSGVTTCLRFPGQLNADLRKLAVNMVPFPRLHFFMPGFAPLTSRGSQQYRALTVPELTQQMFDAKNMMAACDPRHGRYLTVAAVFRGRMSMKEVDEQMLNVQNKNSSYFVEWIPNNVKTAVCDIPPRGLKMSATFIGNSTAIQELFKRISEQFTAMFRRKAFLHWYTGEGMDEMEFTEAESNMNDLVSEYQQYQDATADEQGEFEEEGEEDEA
# T1 sequence (P02550 whole entry partner): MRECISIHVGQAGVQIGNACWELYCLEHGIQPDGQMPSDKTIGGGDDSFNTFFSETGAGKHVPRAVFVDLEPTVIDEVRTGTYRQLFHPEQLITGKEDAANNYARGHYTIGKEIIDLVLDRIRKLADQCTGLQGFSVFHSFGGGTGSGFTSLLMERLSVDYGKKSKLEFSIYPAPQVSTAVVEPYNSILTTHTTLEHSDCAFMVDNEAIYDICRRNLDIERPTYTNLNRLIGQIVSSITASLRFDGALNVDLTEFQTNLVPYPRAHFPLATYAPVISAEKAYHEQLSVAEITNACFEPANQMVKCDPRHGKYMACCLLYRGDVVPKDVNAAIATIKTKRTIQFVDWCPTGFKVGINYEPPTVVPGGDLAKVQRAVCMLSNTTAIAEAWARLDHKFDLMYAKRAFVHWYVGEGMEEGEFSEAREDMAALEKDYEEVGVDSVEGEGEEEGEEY
IC50 (HeLa cells [1]),SMILES,also measured
> 100 µM,O=c1[nH]c(/C=C/c2ccccc2C(F)(F)F)nc2sc3c(c12)CCCC3 [Compound 10u],–
> 100 µM,"CCOc1ccc(/C=C/c2nc3sc4c(c3c(=O)[nH]2)CCCC4)cc1 [Compound 10l, (E)-2-(4-ethoxystyryl)-5,6,7,8-tetrahydrobenzo[4,5]thieno[2,3-d]pyrimidin-4(3H)-one]",–
> 100 µM,"O=c1[nH]c(/C=C/c2ccc(F)c(F)c2)nc2sc3c(c12)CCCC3 [Compound 10j, (E)-2-(3,4-difluorostyryl)-5,6,7,8-tetrahydrobenzo[4,5]thieno[2,3-d]pyrimidin-4(3H)-one]",–
50.9 µM,"COc1ccc(/C=C/c2nc3sc4c(c3c(=O)[nH]2)CCCC4)cc1 [Compound 10h, (E)-2-(4-methoxystyryl)-5,6,7,8-tetrahydrobenzo[4,5]thieno[2,3-d]pyrimidin-4(3H)-one]",–
> 100 µM,"COc1ccc(/C=C/c2nc3sc4c(c3c(=O)[nH]2)CCCC4)cc1OC [Compound 10k, (E)-2-(3,4-dimethoxystyryl)-5,6,7,8-tetrahydrobenzo[4,5]thieno[2,3-d]pyrimidin-4(3H)-one]",–
> 100 µM,"Cc1ccc(/C=C/c2nc3sc4c(c3c(=O)[nH]2)CCCC4)cc1 [Compound 10m, (E)-2-(4-methylstyryl)-5,6,7,8-tetrahydrobenzo[4,5]thieno[2,3-d]pyrimidin-4(3H)-one]",–
> 100 µM,"O=c1[nH]c(/C=C/c2ccc(Br)cc2)nc2sc3c(c12)CCCC3 [Compound 10i, (E)-2-(4-bromostyryl)-5,6,7,8-tetrahydrobenzo[4,5]thieno[2,3-d]pyrimidin-4(3H)-one]",–

# The remaining lines, values behind:
SMILES,IC50 (HeLa cells [1]),also measured
"CSc1ccc(/C=C/c2nc3sc4c(c3c(=O)[nH]2)CCCC4)cc1 [Compound 10e, (E)-2-(4-methylthiostyryl)-5,6,7,8-tetrahydrobenzo[4,5]thieno[2,3-d]pyrimidin-4(3H)-one]",6.31 µM,–
"COc1cccc(/C=C/c2nc3sc4c(c3c(=O)[nH]2)CCCC4)c1 [Compound 10d, (E)-2-(3-methoxystyryl)-5,6,7,8-tetrahydrobenzo[4,5]thieno[2,3-d]pyrimidin-4(3H)-one]",4.21 µM,–
"O=c1[nH]c(/C=C/c2ccc(F)cc2F)nc2sc3c(c12)CCCC3 [Compound 10a, (E)-2-(2,4-difluorostyryl)-5,6,7,8-tetrahydrobenzo[4,5]thieno[2,3-d]pyrimidin-4(3H)-one]",0.246 µM,microtubule stability in treated cells (HeLa cells [2]): destabilized in a drug dose-dependent manner; IC50 [3]: 0.283 µM; inhibition of microtubule (tubulin) polymerization in vitro (tubulin): potent inhibitors of microtubule polymerization similar to colchicine
"CCOc1ccc(/C=C/c2nc3sc4c(c3c(=O)[nH]2)CCCC4)cc1OC [Compound 10f, (E)-2-(4-ethoxy-3-methoxystyryl)-5,6,7,8-tetrahydrobenzo[4,5]thieno[2,3-d]pyrimidin-4(3H)-one]",25.9 µM,–
CCCS(=O)(=O)Nc1ccc(F)c(C(=O)c2c[nH]c3ncc(-c4ccc(Cl)cc4)cc23)c1F [Vemurafenib],–,percentage colony formation (M233): 94±7; percentage colony formation (M308): 102±5
COc1cc2c(c(OC)c1OC)-c1ccc(OC)c(=O)cc1[C@@H](NC(C)=O)CC2 [colchicine],–,percentage colony formation (M233): 0.1±0.06; percentage colony formation (M308): 1.5±0.5
"Cc1cccc(/C=C/c2nc3sc4c(c3c(=O)[nH]2)CCCC4)c1 [Compound 10g, (E)-2-(3-methylstyryl)-5,6,7,8-tetrahydrobenzo[4,5]thieno[2,3-d]pyrimidin-4(3H)-one]",> 100 µM,–
"O=c1[nH]c(/C=C/c2ccc(F)cc2)nc2sc3c(c12)CCCC3 [Compound 10c, (E)-2-(4-fluorostyryl)-5,6,7,8-tetrahydrobenzo[4,5]thieno[2,3-d]pyrimidin-4(3H)-one]",1.11 µM,–
"O=c1[nH]c(/C=C/c2cc(F)ccc2F)nc2sc3c(c12)CCCC3 [Compound 10b, (E)-2-(2,5-difluorostyryl)-5,6,7,8-tetrahydrobenzo[4,5]thieno[2,3-d]pyrimidin-4(3H)-one]",0.159 µM,microtubule stability in treated cells (HeLa cells [2]): destabilized in a drug dose-dependent manner; IC50 [3]: 0.113 µM; inhibition of microtubule (tubulin) polymerization in vitro (tubulin): potent inhibitors of microtubule polymerization similar to colchicine
